These results are taken from publication PMC3199744, “Preformulation and stability in biological fluids of the retrocyclin RC-101, a potential anti-HIV topical microbicide” (AIDS Research and Therapy, 2011).

For this data set the following is noted: for detection of RC-101 by LC-MS/MS: frozen HVF (-80°C, 3 months) 1:1, 37°C, nanoLC-SRM MS, qualitative. The method, then:
The HVF from the Instead Softcup® was removed by centrifugation of the conical tube for 10 min at 5,000 rpm. […] HVF was then removed from the cup and the pH of each HVF sample was measured with Fisher Alkacid pH filter strips (Fisher Scientific). All samples collected on a specific day were pooled to be used for the research studies. If the pH of the individual samples was higher than 5, the sample was not included in the pool but it was stored at -80°C for separate analysis. If the sample contained blood, it was immediately discarded. Samples were prepared as described in Table 1. […] Because of its high viscosity, HVF was measured by weight and not by volume. All solutions were prepared fresh and incubated with HVF (or water) at 37°C for specific periods of time (0, 2, 6, 12, 24, 48, and 72 h), unless specified otherwise. At each time point, the samples were centrifuged at 10,000 rpm for 10 min to separate the supernatant from the epithelial cells as described in the cell processing section. Both parts (supernatant and cells) were stored at -80 ± C until analyzed by LC-MS/MS. To evaluate the influence of freezing the fluid prior to the analysis, the last pool of HVF was divided into two samples: one used fresh (at the time of collection), and the other one stored at -80°C for a 3-month period. After that time period, HVF was thawed and processed for blank and RC-101 solution only, as described in Table 1. HVF samples collected with a high pH value indicative of BV were stored at -80°C as previously mentioned. After confirmation of BV on those fluid samples by Gram stain score, the fluid samples (HVF BV^+) were thawed, pooled, and processed as described in Table 1.
At each time point, the sample was removed from the incubation chamber and centrifuged for 10 min at 10,000 rpm, at 4 ± C to separate the supernatant from cell pellet. Supernatant (100 μL) was added to microcentrifuge filters Ultracel YM-10 Microcon MWCO 10,000 (Millipore Corporation, Bedford, MA), which were pre-washed with Milli Q water to eliminate any trace of propylene glycol from the filters. Samples were centrifuged twice for 15 min at 8,500 rpm, at 4 ± C. The filtrate was collected and frozen at -80 ± C until further analysis. A solution of 3 M urea was added to the cell pellet (1:1 w/w) obtained from the first centrifugation, to lyse the cells. This mixture was vortexed three times for 30 sec, and then centrifuged for 10 min at 10,000 rpm, at 4 ± C. The supernatant obtained from the cell lysate was then added to microcentrifuge filters Ultracel YM-10 Microcon MWCO 10,000 pre-washed with Milli Q water. Samples were centrifuged twice for 15 min at 8,500 rpm, at 4 ± C. The filtrate was collected and frozen at -80 ± C until analysis. […] Samples were thawed and added to PepCleanTM C-18 spin columns (Pierce Biotechnology Inc., Rockford, IL) for desalting, after column conditioning with acetonitrile:water (50:50) and equilibration with 0.1% trifluoroacetic acid. The column was washed three times with 0.1% trifluoroacetic acid, and RC-101 was eluted with acetonitrile:water (60:40) in 0.1% trifluoroacetic acid. Samples were dried in a speed vacuum CentriVap concentrator (LabConco Corp., Kansas City, MO) and resuspended with 200 μL of Milli Q water for LC-MS/MS analysis. Each sample described in Table 1 originated two sets of samples: one labeled as supernatant and the second one labeled as cells.
Integrated electrospray ionization (ESI)-capillary reversed-phase columns (75 μm inner diameter × 360 μm outer diameter × 100 mm length) packed with 5 μm 300 Å pore size Jupiter C18 reversed-phase stationary phase (Phenomenex) were prepared, as previously described. Solvent flow was supplied by a nanoflow HPLC system (Ultimate 3000, Dionex Corporation, Sunnyvale, CA).

Read-outs that look alike come from different tables or passages of the source.

In the case of “GICRCICGKGICRCICGR (bicyclic or more) [RC-101]”, the “difference in the peptide after incubation with frozen fluid versus fresh HVF” value (HVF stored at -80°C for 3 months, thawed, 1:1 with RC-101 100 μg/mL solution, 37°C, LC-MS/MS not quantitative) is reported as “No detectable differences”. For the same sequence, the “detection of RC-101 by LC-MS/MS” value (0 h) is listed as “+”; the “detection of RC-101 by LC-MS/MS” value (2 h) is listed as “+”; the “detection of RC-101 by LC-MS/MS” value (6 h) is given as “+”; the “detection of RC-101 by LC-MS/MS” value (12 h) is listed as “+”; the “detection of RC-101 by LC-MS/MS” value (24 h) is recorded as “+”; the “detection of RC-101 by LC-MS/MS” value (48 h) was “+”.
